Experimental data from the NIST ThermoML archive (doi:10.1021/je060271a).

Details: 283.15 K, Liquid, Vibrating tube method

CCCCC(=O)OCC(COC(=O)CCCC)(COC(=O)CCCC)COC(=O)CCCC [pentaerythritol tetrapentanoate]
Details | mass density [kg/m3]
2596 kPa | 1028.7
2607.6 kPa | 1028.6
2619.2 kPa | 1028.8
2631.2 kPa | 1028.6
2645.8 kPa | 1028.6
2657.4 kPa | 1028.6
2670 kPa | 1028.7
2684.8 kPa | 1028.6
2697.1 kPa | 1028.5
2708.7 kPa | 1028.6
2721.4 kPa | 1028.6
2736.6 kPa | 1028.8
2749.1 kPa | 1028.6
2762 kPa | 1028.6
2777.4 kPa | 1028.7
2790.4 kPa | 1028.7
2803.7 kPa | 1028.6
2819.5 kPa | 1028.6
2833.1 kPa | 1028.7
2846.4 kPa | 1028.7
2860.3 kPa | 1028.7
2874 kPa | 1028.8
2891 kPa | 1028.7
2904.7 kPa | 1028.6
2918.7 kPa | 1028.8
2935.2 kPa | 1028.8
2949.4 kPa | 1028.8
2963.8 kPa | 1028.8
2978.5 kPa | 1028.7
2995.7 kPa | 1028.9
3010.3 kPa | 1028.8
3025.5 kPa | 1028.8
3042.9 kPa | 1028.9
3057.8 kPa | 1029
3073.4 kPa | 1028.9
3091.7 kPa | 1028.8
3107 kPa | 1028.9
3122.3 kPa | 1028.9
3138 kPa | 1029
3156.6 kPa | 1029
3172.7 kPa | 1028.9
3191.8 kPa | 1028.9
3207.9 kPa | 1029
3224.7 kPa | 1028.9
3241.2 kPa | 1029
3261.6 kPa | 1029
3276.9 kPa | 1028.9
3297 kPa | 1028.9
3314 kPa | 1029
3334.8 kPa | 1029.1
3352.3 kPa | 1029
3369.8 kPa | 1029
3387.8 kPa | 1029
3405.8 kPa | 1029.1
3427.2 kPa | 1029.1
3444.8 kPa | 1029.1
3463.4 kPa | 1029.2
3485.6 kPa | 1029
3505 kPa | 1029.1
3523.9 kPa | 1029.1
3543.1 kPa | 1029.2
3562.2 kPa | 1029.1
3585.6 kPa | 1029.1
3605.1 kPa | 1029.2
3625.3 kPa | 1029.2
3645 kPa | 1029.4
3665.5 kPa | 1029.2
3689.4 kPa | 1029.2
3709.5 kPa | 1029.3
3729.7 kPa | 1029.2
3754.5 kPa | 1029.2
3775.8 kPa | 1029.2
3797 kPa | 1029.3
3821.9 kPa | 1029.4
3843.6 kPa | 1029.4
3865.6 kPa | 1029.3
3887.1 kPa | 1029.4
3913.4 kPa | 1029.2
3935.4 kPa | 1029.2
3957.4 kPa | 1029.4
3984.4 kPa | 1029.5
4007.1 kPa | 1029.3
4030 kPa | 1029.5
4053.3 kPa | 1029.5
4081.1 kPa | 1029.5
4104.4 kPa | 1029.6
4128.5 kPa | 1029.5
4157.3 kPa | 1029.6
4181.3 kPa | 1029.5
4205.4 kPa | 1029.5
4234.9 kPa | 1029.5
4260 kPa | 1029.6
4284.7 kPa | 1029.5
4314.9 kPa | 1029.7
4340 kPa | 1029.7
4366.5 kPa | 1029.7
4393.7 kPa | 1029.7
4426 kPa | 1029.7
4453.1 kPa | 1029.7
4480.4 kPa | 1029.8
4507.9 kPa | 1029.8
4542.4 kPa | 1029.9
4572 kPa | 1029.7
4602.1 kPa | 1029.7
4632.8 kPa | 1029.7
4669.8 kPa | 1029.8
4701.7 kPa | 1030
4733 kPa | 1029.9
4763.3 kPa | 1029.9
4792.9 kPa | 1029.8
4797.4 kPa | 1029.9
4798.1 kPa | 1029.9
4800.3 kPa | 1029.9
4801 kPa | 1029.8
4803.1 kPa | 1030
4805.2 kPa | 1029.9
4805.4 kPa | 1030
4807.6 kPa | 1029.9
4808.8 kPa | 1029.9
4810.7 kPa | 1029.9
4811.8 kPa | 1029.9
4812.5 kPa | 1029.9
4813.1 kPa | 1029.9
4813.3 kPa | 1030
4813.7 kPa | 1029.9
4814 kPa | 1030
4814.2 kPa | 1029.9
4814.4 kPa | 1029.9
4819 kPa | 1030
4836.2 kPa | 1029.9
4855.7 kPa | 1029.9
4877.5 kPa | 1029.9
4899 kPa | 1030
4924.1 kPa | 1030
4945.9 kPa | 1029.9
4969.3 kPa | 1030
4990.9 kPa | 1030
5013.2 kPa | 1030
5040.4 kPa | 1030
5062.7 kPa | 1030
5085.9 kPa | 1030
5113.1 kPa | 1030.1
5136.1 kPa | 1030.1
5159.8 kPa | 1030
5188.5 kPa | 1030.1
5213.2 kPa | 1030.2
5238.3 kPa | 1030.2
5263.4 kPa | 1030
5289.6 kPa | 1030.3
5314.9 kPa | 1030.1
5344.8 kPa | 1030.1
5370.4 kPa | 1030.2
5395.8 kPa | 1030.2
5426.8 kPa | 1030.1
5453.3 kPa | 1030.3
5479.6 kPa | 1030.3
5512.1 kPa | 1030.3
5539.8 kPa | 1030.4
5567.4 kPa | 1030.3
5595.3 kPa | 1030.4
